Consider 13 compounds from patent US20240140951A1, “IMIDAZOPYRIDAZINE DERIVATIVES AS IL-17 MODULATORS” (UCB Biopharma SRL, priority 2020, published 2024).

By IC50 is commonly meant the concentration at which inhibition is half-maximal.

This assay concerns the target T1, IL-17A (Homo sapiens, UniProt Q16552).
T1 sequence (Q16552 24-155): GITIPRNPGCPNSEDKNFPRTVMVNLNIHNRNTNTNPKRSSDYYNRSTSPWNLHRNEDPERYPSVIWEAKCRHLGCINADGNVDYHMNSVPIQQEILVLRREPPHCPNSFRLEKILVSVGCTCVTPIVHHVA
Put plainly: Inhibition of IL-17A induced IL-6 release from dermal fibroblast cell line (HDF cell line assay). The format is cell-based. As to conditions: HDF cells stimulated with IL-17A 50 pM + TNF-α 25 pM; IL-6 release measured by HTRF. From the text:
Inhibition of IL-17A Induced IL-6 Release from Dermal Fibroblast Cell Line
The purpose of this assay is to test the neutralising ability to IL-17 proteins, in a human primary cell system. Stimulation of normal human dermal fibroblasts (HDF) with IL-17 alone produces only a very weak signal but in combination with certain other cytokines, such as TNFα, a synergistic effect can be seen in the production of inflammatory cytokines, i.e. IL-6.
HDFs were stimulated with IL-17A (50 pM) in combination with TNF-α (25 pM). The resultant IL-6 response was then measured using a homogenous time-resolved FRET kit from Cisbio. The kit utilises two monoclonal antibodies, one labelled with Eu-Cryptate (Donor) and the second with d2 or XL665 (Acceptor). The intensity of the signal is proportional to the concentration of IL-6 present in the sample (Ratio is calculated by 665/620×104).
The ability of a compound to inhibit IL-17 induced IL-6 release from human dermal fibroblasts is measured in this assay.
HDF cells (Sigma #106-05n) were cultured in complete media (DMEM+10% FCS+2 mM L-glutamine) and maintained in a tissue culture flask using standard techniques. Cells were harvested from the tissue culture flask on the morning of the assay using TrypLE (Invitrogen #12605036). The TrypLE was neutralised using complete medium (45 mL) and the cells were centrifuged at 300×g for 3 minutes. The cells were re-suspended in complete media (5 mL) counted and adjusted to a concentration of 3.125×10^4 cells/mL before being added to the 384 well assay plate (Corning #3701) at 40 μL per well. The cells were left for a minimum of three hours, at 37° C./5% CO2, to adhere to the plate.
Compounds were serially diluted in DMSO before receiving an aqueous dilution into a 384 well dilution plate (Greiner #781281), where 5 μL from the titration plate was transferred to 45 μL of complete media and mixed to give a solution containing 10% DMSO.
Mixtures of TNFα and IL-17 cytokine were prepared in complete media to final concentrations of TNFα 25 pM/IL-17A 50 pM, then 30 μL of the solution was added to a 384 well reagent plate (Greiner #781281).
L from the aqueous dilution plate was transferred to the reagent plate containing 30 μL of the diluted cytokines, to give a 2.5% DMSO solution. The compounds were incubated with the cytokine mixtures for 5 h at 37° C. After the incubation, 10 μL was transferred to the assay plate, to give a 0.5% DMSO solution, then incubated for 18-20 h at 37° C./5% CO2.
From the Cisbio IL-6 FRET kit (Cisbio #62IL6PEB) europium cryptate and Alexa 665 were diluted in reconstitution buffer and mixed 1:1, as per kit insert. To a white low volume 384 well plate (Greiner #784075) were added FRET reagents (10 μL), then supernatant (10 μL) was transferred from the assay plate to Greiner reagent plate. The mixture was incubated at room temperature for 3 h with gentle shaking (<400 rpm) before being read on a Synergy Neo 2 plate reader (Excitation: 330 nm; Emission: […]).
A general note: TR-FRET usually uses a lanthanide donor and a delayed reading to cut background.
In the case of `CNC(=O)[C@H](NC(=O)C(CC(F)F)c1cnn2cc([C@@H](NC(=O)c3nonc3C)C3CCC(F)(F)CC3)nc2c1)C(C)C` (stereo partly drawn) [Example 2, N-{(S)-(4,4-difluorocyclohexyl)[7-(3,3-difluoro-1-{[(1R)-2-methyl-1-(methylcarbamoyl)-propyl]carbamoyl}propyl)imidazo[1,2-b]pyridazin-2-yl]methyl}-4-methyl-1,2,5-oxadiazole-3-carboxamide], the concentration for half-maximal inhibition (IC50) was 10 nM.

Turning to `Cc1nonc1C(=O)N[C@H](c1cn2ncc(C(CC(F)F)c3nnnn3CC(F)(F)F)cc2n1)C1CCC(F)(F)CC1` (single isomer, unassigned) [Example 15, N-[(S)-(4,4-Difluorocyclohexyl)(7-{(1S*)-3,3-difluoro-1-[1-(2,2,2-trifluoroethyl)tetrazol-5-yl]propyl}imidazo[1,2-b]pyridazin-2-yl)methyl]-4-methyl-1,2,5-oxadiazole-3-carboxamide], the IC50 was 20 nM. For the compound `CC(C)n1ncnc1C(=O)N[C@H](c1cn2ncc(C(CC(F)F)C(=O)NCC(F)(F)F)cc2n1)C1CCC(F)(F)CC1` (stereo partly drawn) [Example 8, N-[(S)-(4,4-Difluorocyclohexyl){7-[3,3-difluoro-1-(2,2,2-trifluoroethylcarbamoyl)-propyl]imidazo[1,2-b]pyridazin-2-yl}methyl]-2-isopropyl-1,2,4-triazole-3-carboxamide], the IC50 was 158 nM. Then `Cc1nonc1C(=O)N[C@H](c1cn2ncc(C3(C(=O)NCC(C)(F)F)CCOCC3)cc2n1)C1CCC(F)(F)CC1` [Example 14, N-[(S)-(4,4-Difluorocyclohexyl){7-[4-(2,2-difluoropropylcarbamoyl)tetrahydropyran-4-yl]imidazo[1,2-b]pyridazin-2-yl}methyl]-4-methyl-1,2,5-oxadiazole-3-carboxamide], with 63.1 nM; and `Cc1nonc1C(=O)N[C@H](c1cn2ncc(C(CC(F)F)c3nnc4ccc(F)cn34)cc2n1)C1CCC(F)(F)CC1` (single isomer, unassigned) [Example 12], with 31.6 nM. Take `Cc1nonc1C(=O)N[C@H](c1cn2ncc(C(CC(F)F)C(=O)NCC(F)(F)F)cc2n1)C1CCC(F)(F)CC1` (stereo partly drawn) [Example 1, N-[(S)-(4,4-Difluorocyclohexyl){7-[3,3-difluoro-1-(2,2,2-trifluoroethylcarbamoyl)-propyl]imidazo[1,2-b]pyridazin-2-yl}methyl]-4-methyl-1,2,5-oxadiazole-3-carboxamide]: the IC50 is 39.8 nM. As for `CC(C)n1nccc1C(=O)N[C@H](c1cn2ncc(C(CC(F)F)C(=O)NCC(F)(F)F)cc2n1)C1CCC(F)(F)CC1` (stereo partly drawn) [Example 7, N-[(S)-(4,4-Difluorocyclohexyl){7-[3,3-difluoro-1-(2,2,2-trifluoroethylcarbamoyl)-propyl]imidazo[1,2-b]pyridazin-2-yl}methyl]-2-isopropylpyrazole-3-carboxamide], the IC50 was 25.1 nM. With `Cc1nonc1C(=O)N[C@H](c1cn2ncc(C3CC(F)(F)CCN3C(=O)C34CC(F)(C3)C4)cc2n1)C1CCC(F)(F)CC1` (single isomer, unassigned) [Example 16], the IC50 is 25.1 nM. The value for `Cc1nonc1C(=O)NC(c1cn2ncc(C(CC(F)F)C(=O)NCC(F)(F)F)cc2n1)C(C1CC1)C1CC1` (stereo not shown) [Example 11, N-(2,2-Dicyclopropyl-1-{7-[3,3-difluoro-1-(2,2,2-trifluoroethylcarbamoyl)propyl]-imidazo[1,2-b]pyridazin-2-yl}ethyl)-4-methyl-1,2,5-oxadiazole-3-carboxamide] was 316 nM; that for `CC(F)(F)CNC(=O)C1(c2cnn3cc([C@@H](NC(=O)c4nonc4C4CC4)C4CCC(F)(F)CC4)nc3c2)CCOCC1` [Example 17, 4-Cyclopropyl-N-[(S)-(4,4-difluorocyclohexyl){7-[4-(2,2-difluoropropylcarbamoyl)-tetrahydropyran-4-yl]imidazo[1,2-b]pyridazin-2-yl}methyl]-1,2,5-oxadiazole-3-carboxamide] was 6.31 nM.

`Cc1nonc1C(=O)N[C@H](c1cn2ncc(C3CN(C4COC4)CC3C(=O)N3CC(F)(F)C(F)(F)C3)cc2n1)C1CCC(F)(F)CC1` (single isomer, unassigned) [Example 13]: the concentration for half-maximal inhibition (IC50) was 25.1 nM.

Consider `Cc1nonc1C(=O)N[C@H](c1cn2ncc(C3(C(=O)NCC(F)(F)F)CCC(F)(F)CC3)cc2n1)C1CCC(F)(F)CC1` [Example 9, N-[(S)-(4,4-Difluorocyclohexyl){7-[4,4-difluoro-1-(2,2,2-trifluoroethylcarbamoyl)-cyclohexyl]imidazo[1,2-b]pyridazin-2-yl}methyl]-4-methyl-1,2,5-oxadiazole-3-carboxamide], for which the IC50 is 63.1 nM. Regarding `CCc1nonc1C(=O)N[C@H](c1cn2ncc(C(CC(F)F)C(=O)NCC(F)(F)F)cc2n1)C1CCC(F)(F)CC1` (stereo partly drawn) [Example 5, N-[(S)-(4,4-Difluorocyclohexyl){7-[3,3-difluoro-1-(2,2,2-trifluoroethylcarbamoyl)-propyl]imidazo[1,2-b]pyridazin-2-yl}methyl]-4-ethyl-1,2,5-oxadiazole-3-carboxamide], the IC50 was 20 nM.
